Assay in all cases: cells
Common to all, as to set-up: CellTiter-Glo 2.0 luminescence proliferation/viability assay, single agents, human tumour cell line panel
For orientation: ATP-based viability assays read luminescence as a measure of living cells.

For experiment [1], the system named is C32. The settings on record: Homo sapiens, C32, 96 h; single agent; read-out: IC50 SMACm. In outline:
(§1)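 Human tumour cell lines were seeded into assay plates and held at 37°C with 5% CO2 for twenty-four hours, then exposed in triplicate to rising concentrations of the SMAC mimetic, from 4.5 nM to 10 μM, with DMSO as control. After 96 h, viability was read as CellTiter-Glo2.0 luminescence to derive single-agent IC50 values.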

The test system of experiment [2] is C80. The following applies: 96 h; single agent; read-out: IC50 SMACm. In outline:
as §1

In experiment [3] the test system is Gp2D. The following applies: GP2d, 96 h; single agent; read-out: IC50 SMACm. Summed up:
as §1

The subject of experiment [4] is HCC1438. The following applies: 96 h; single agent; read-out: IC50 SMACm. In outline: as §1
The subject of experiment [5] is HCC78. The settings on record: Homo sapiens, HCC78, 96 h; single agent; read-out: IC50 SMACm. In outline:
as §1

The subject of experiment [6] is HCC95. The settings on record: Homo sapiens, HCC95, 96 h; single agent; read-out: IC50 SMACm. In outline: as §1
Experiment [7] concerns HT-29. The settings on record: Homo sapiens, HT-29, 96 h; single agent; read-out: IC50 SMACm. Summed up: as §1
Experiment [8] has as its system LS-411N. The settings on record: Homo sapiens, LS-411N, 96 h; single agent; read-out: IC50 SMACm. Summed up:
as §1

In experiment [9] the test system is NCI-H1975. The following applies: Homo sapiens, NCI-H1975, 96 h; single agent; read-out: IC50 SMACm. Summed up:
as §1

For experiment [10], the system named is RKO. The following applies: Homo sapiens, RKO, 96 h; single agent; read-out: IC50 SMACm. Summed up: as §1
Experiment [11] deals with SNU-16. The following applies: Homo sapiens, SNU-16, 96 h; single agent; read-out: IC50 SMACm. In outline: as §1
For experiment [12], the system named is SNU1544. The following applies: 96 h; single agent; read-out: IC50 SMACm. In outline:
as §1

Experiment [13] has as its system SNU503. The following applies: 96 h; single agent; read-out: IC50 SMACm. In outline:
as §1

In experiment [14] the test system is SNU977. The settings on record: 96 h; single agent; read-out: IC50 SMACm. In outline:
as §1

Experiment [15] relates to T84. The following applies: Homo sapiens, T84, 96 h; single agent; read-out: IC50 SMACm. Summed up:
as §1

In the case of `CN[C@@H](C)C(=O)Nc1ccc(-c2c(-c3cccnc3OC)nc3cc(C)ccn23)c(C#Cc2ccc3c(C)nccc3c2)n1` [SMACm, BI 891065], the IC50 turned out to be 1.09 µM in experiment [1]; 1.81 µM in experiment [2]; 3.62 µM in [3]; 2.29 µM in experiment [4]; 5.11 µM in [5]; 6.09 µM in experiment [6]. In addition, the IC50 amounted to 4.24 µM in experiment [7]; 4.43 µM in [8]; 4.63 µM in [9]; 5.07 µM in [10]; 4.32 µM in experiment [11]; 3.1 µM in [12]. For the same compound, the 50% inhibitory concentration (IC50) was found to be 5.23 µM in experiment [13], 2.88 µM in [14] and 4.44 µM in experiment [15].

A word on the IC50: it is the concentration needed to halve the response being measured.

Source of the values: publication PMC12490239, “Combining BET inhibition with SMAC mimetics restricts tumor growth and triggers immune surveillance in preclinical cancer models” (Cell Reports Medicine, 2025).
